`O=C(Nc1ccc(Oc2ccnc(NC3CCCCC3)n2)c2ccccc12)c1cc(F)cc(N2CCCCC2)c1` and `O=c1c2ccccc2c(-c2ccccc2)cn1CCCN1CCCCC1` cannot be ordered by melting point: 118 to 120 °C for the first, 118 °C for the second.

Compared with `O=c1c2c(Br)cc(Br)cc2n(Cc2ccccc2)c(=O)n1Cc1ccccc1Cl`, `CC(C)(C)c1ccc(Cn2c3c(c4cc(OCc5ccccc5)ccc42)C(=O)C(=O)OC3)cc1` is higher in melting point: 202 to 205 °C for the first, 233 to 234 °C for the second.

Compared with `CC(C)COc1ccc(C(=O)N/C(=C\c2ccc(C(F)(F)F)cc2)C(=O)NCCO)cc1`, `NCC=Cc1ccc(NC(=O)c2ccccc2-c2ccc(C(F)(F)F)cc2)cc1` is lower in melting point: 207 to 210 °C for the first, 190 °C for the second.

Compared with `CCOC(=O)Cc1cc(C)c(C(=O)c2ccc(F)cc2)n1C`, `CC(=O)N1CCC(CCC(=O)c2ccc(F)cc2)CC1` is higher in melting point: 84 to 86 °C for the first, 95 to 96 °C for the second.

First: OCc1ccccc1SCCN1CCN(c2ccccc2)CC1
Second: Oc1ccc2cc(OCCN3CCC(Cc4ccccc4)CC3)ccc2c1
The melting point of the first is lower: 72 to 74 °C for the first, 139 to 141 °C for the second.

First: Cc1cc(C2=CCCCC2)c(OP2OCC(C)(C)CO2)c(C(C)(C)C)c1
Second: COc1cc(C)nc(NC(=O)NS(=O)(=O)c2ccccc2C2=CCCC2)n1
The melting point of the first is lower: 97 to 102 °C for the first, 235 to 236 °C for the second.

Compared with `CCCCCCc1c(Cl)nc(NC=O)nc1Cl`, `Cc1cc(CCCCCCCOc2ccc(C(=O)NN)cc2)on1` is higher in melting point: 80 to 81 °C for the first, 121 to 122 °C for the second.

Compared with `CCOC(=O)C(c1ccc(NC(=O)OC(C)(C)C)cc1)N(C)C(C)C` (centres undefined), `C[C@H]1[C@H](NC(=O)OC(C)(C)C)C(=O)N1OCC(=O)OCc1ccc([N+](=O)[O-])cc1` is lower in melting point: 87 to 88 °C for the first, 71 to 75 °C for the second.

First: O=C(CCc1c(C(=O)OCCN2CCOCC2)[nH]c2cc(Cl)cc(Cl)c12)OCCN1CCOCC1
Second: CC(C)=CCN1CCN(CCC(=O)N2c3ccccc3C(=O)Nc3cccnc32)CC1
The melting point of the first is lower: 110 to 112 °C for the first, 199 to 201 °C for the second.

Compared with `Oc1ccc(Nc2nc(Cl)cc3ccccc23)cc1`, `OC(c1ccc(Cl)cc1)c1ccccc1Cl` (centres undefined) is lower in melting point: 170 °C for the first, 68 to 70 °C for the second.

Compared with `CN1CCC(O)(C2CC(c3ccc(-c4ccc(N5C[C@H](Cn6ccnn6)OC5=O)cc4F)cn3)=NO2)CC1` (some centres undefined), `Cc1ccc(S(=O)(=O)OCC2CN(c3cc(F)c(N4CCN(C(=O)OC(C)(C)C)CC4)c(F)c3)C(=O)O2)cc1` (centres undefined) is higher in melting point: 73 °C for the first, 150 to 152 °C for the second.

First: Cc1nc2ccc(NS(=O)(=O)c3cccc(Cl)c3C)cc2o1
Second: COc1ccc(Cl)cc1S(=O)(=O)Nc1onc(C)c1Br
The melting point of the first is lower: 127 to 128 °C for the first, 180 to 184 °C for the second.

Compared with `CCCCCCCCCCCCCCOc1cccc(CBr)c1`, `CN(CCCNC(=NCCCCOc1cccc(CN2CCCCC2)c1)NC#N)CCN(Cc1ccc(F)cc1)c1ccccn1` is higher in melting point: 34 to 35 °C for the first, 102 to 105 °C for the second.

First: Clc1ccc(C2CCc3cc(Cl)ccc3O2)cc1 (centres undefined)
Second: O=C1c2ccc(Cl)cc2CC1Cl (centres undefined)
The melting point of the first is higher: 99 to 100 °C for the first, 63 to 66 °C for the second.

First: CO/N=C(\C(=O)OCCSc1nc2ccccc2s1)c1csc(NC=O)n1
Second: CCn1nc(-c2ccc(OC)cc2)cc(C(=O)NC)c1=O
The melting point of the first is higher: 172 to 173 °C for the first, 122 to 123 °C for the second.

First: CCC[C@H]1CC[C@H]([C@H]2CC[C@H](c3cc(F)c(C[C@H](C)c4ccccc4)c(F)c3)CC2)CC1
Second: O[C@H]1CC[C@H](N(Cc2ccccc2)Cc2ccccc2)CC1
The melting point of the first is lower: 93.7 °C for the first, 97 to 99 °C for the second.

First: CC1(C)CC(=O)C(C(=O)Nc2cccc(C(F)(F)F)c2)C(=O)O1 (centres undefined)
Second: Cn1c(C(F)(F)F)cc(=O)n(-c2c(F)cc(Cl)c3c2OC(C)(C)CC3)c1=O
The melting point of the first is higher: 150 °C for the first, 132 to 135 °C for the second.

Compared with `COC(=O)c1ccc(CC(C)NCC(O)c2ccc(Cl)cc2)cc1` (centres undefined), `O=C(O)C(OCc1ccc(-c2ccc(Cl)cc2)cc1)(C(F)(F)F)C(F)(F)F` is lower in melting point: 134 to 135 °C for the first, 90 to 92 °C for the second.

First: COC(=O)Cn1c(Cc2ccccc2)ccc(NC(=O)CCCc2ccccc2)c1=O
Second: CCCCOC(=O)Cc1ccc(CNS(=O)(=O)c2ccccc2)cc1
The melting point of the first is higher: 93 to 95 °C for the first, 60.5 to 61 °C for the second.

First: CCOC(=O)COc1ccc2cc(Br)ccc2c1Br
Second: CCOC(=O)c1cc2ccccc2n1-c1ccc(OC)c(OC)c1
The melting point of the first is lower: 104 to 106 °C for the first, 126 to 128 °C for the second.

Compared with `COC(=O)C1CCCN(COS(C)(=O)=O)c2c1cc(O)c1ccccc21` (centres undefined), `CC(=O)OCc1cc2c3ccccc3[nH]c(=O)n2n1` is higher in melting point: 113 to 115 °C for the first, 177 to 179 °C for the second.

First: CC(C)COC(=O)C1(c2onc(-c3ccc(O)cc3)c2-c2ccccc2)CC1
Second: OCc1c(CO)c(-c2ccccc2)n2c1Cc1ccccc1-2
The melting point of the first is lower: 109 to 110 °C for the first, 169 to 171 °C for the second.

First: CC(=O)Oc1ccccc1C(=O)Nc1ccc(-n2nc(C(F)(F)F)cc2C(F)(F)F)cc1
Second: Cc1cccc(C(=O)Nc2c(C(O)(C(F)(F)F)C(F)(F)F)ccc3ccccc23)c1
The melting point of the first is lower: 159 to 161 °C for the first, 167 to 168 °C for the second.

First: S=C1CCNc2ccccc2N1
Second: Oc1nc2cccccc-2n1
The melting point of the first is lower: 154 to 157 °C for the first, 245 °C for the second.

Compared with `COc1ccc(CCN2COc3c(cccc3OC)C2)cc1`, `COc1ccc(CCNc2nc(NCc3cc(OC)cc(OC)c3)c3cccnc3n2)cc1` is higher in melting point: 69 to 70 °C for the first, 88 to 89 °C for the second.

First: COc1ccc2cc3c(c(-c4ccc(OC(F)(F)F)cc4)c2c1)C(=O)NC3=O
Second: COC(=O)c1ccc(Cn2c(=O)c3cc(C(=O)NCc4ccc(OC)cc4)sc3n(C)c2=O)cc1C
The melting point of the first is higher: 282 to 284 °C for the first, 179 to 181 °C for the second.

First: CCOC(=O)C(C)(C)Oc1cccc2c1CC(O)C(SC)C2 (centres undefined)
Second: CCCC1=C(C(=O)OCC)C(c2cccc(Cl)c2C)c2c[nH]nc2N1 (centres undefined)
The melting point of the first is lower: 132 to 134 °C for the first, 185 °C for the second.

First: C[C@H]1c2onc(-c3ccc(Cl)cc3)c2CCC[C@H]1C(=O)O (relative stereo)
Second: CCOC(=N)c1ccc(-c2nc3c(s2)NCCCC3)cc1
The melting point of the first is higher: 149 to 150 °C for the first, 141 to 143 °C for the second.

First: CCOC(=O)CCc1cn(Cc2cc(OCc3nc(-c4ccccc4)oc3C)no2)nc1OCC
Second: CCCc1nc2c(N)nc3cccnc3c2n1CCCCN(OC)C(=O)Nc1ccccc1
The melting point of the first is lower: 82 to 83 °C for the first, 155 to 156 °C for the second.

First: COC(=O)C1=C(CF)NC(C)=C(C(=O)OC(C)C)C1c1cccc(Cl)c1C (centres undefined)
Second: CCC(OC(C)=O)C(=O)Nc1ccc(I)cc1Cl (centres undefined)
The melting point of the first is lower: 73 to 75 °C for the first, 156 to 158 °C for the second.

First: OC(c1ccccc1)(c1ncc[nH]1)c1ccc(Cl)cc1Cl (centres undefined)
Second: CN1C(=O)N(c2c(Cl)cccc2Cl)Cc2cnc(Nc3ccccc3)nc21
The melting point of the first is lower: 176 to 177 °C for the first, 222 to 224 °C for the second.

Compared with `COc1ccc2cc(-c3cccnc3)ccc2n1`, `CC(COc1ccccc1)NC(=Nc1cccnc1)NC#N` (centres undefined) is higher in melting point: 89 to 91 °C for the first, 130 to 133 °C for the second.

Compared with `Cc1[nH]nc(C(=O)NC2CCCC2)c1NC(=O)c1cnccn1`, `O=C1Nc2ccc(C(F)(F)F)cc2C1c1nc(Cl)nc2nn(C3CCCC3)cc12` (centres undefined) is higher in melting point: 170 to 171 °C for the first, > 300 °C for the second.

First: O=C1C(=O)c2ccccc2C2=C1SCC1(CCN(C(=O)c3ccoc3)CC1)O2
Second: O=C(Nc1cccnc1)N1CCN(c2nccc(-c3cccc(F)c3F)n2)CC1
The melting point of the first is higher: 234 to 235 °C for the first, 232 to 233 °C for the second.

First: CS(=O)(=O)c1ccc(-c2cc(=O)n(CC3CCCCC3)nc2-c2ccc(F)cc2)cc1
Second: CSc1ccc(-c2ccc(=O)[nH]c2C)cc1
The melting point of the first is lower: 175 to 176 °C for the first, 211 to 212 °C for the second.

Compared with `CN(C)C(=O)c1ccc(N2CCN(Cc3cnc4c(c3)NC(=O)[C@@H]3CCCN43)CC2)cc1`, `COC1CCN(Cc2ccc(COc3cccc4c3CN(C3CCC(=O)NC3=O)C4=O)cc2)CC1` (centres undefined) is higher in melting point: 99.2 °C for the first, 149 to 151 °C for the second.

First: CC1(C)Cc2ccccc2C1c1cncnc1S (centres undefined)
Second: O=CC12CC(c3ccccc31)c1ccccc12
The melting point of the first is higher: 184 to 186 °C for the first, 102 °C for the second.

First: O=CNc1ccc(OCCNCC(O)c2ccc(OCc3ccccc3)cc2)cc1 (centres undefined)
Second: O=S(=O)(NCCCCOc1ccc(-n2ccnc2)cc1)c1cccc2nonc12
The melting point of the first is higher: 152 °C for the first, 125 to 126 °C for the second.

Compared with `Cc1ccc(S(=O)(=O)NC(=O)OCCc2ccc(-n3c(CCCc4ccccc4)nc4c(C)nc(C)cc43)cc2)cc1`, `COC(=O)c1cc(-c2ccc(F)c(C)c2)nn(CC=Cc2ccccc2)c1=O` is lower in melting point: 175 °C for the first, 95.9 to 96.7 °C for the second.

Compared with `CCOc1ccc(OCC(F)(F)F)cc1C(=O)O`, `CCOc1nn(-c2c(Cl)cc(C(F)(F)F)cc2Cl)c(N)c1C(=O)c1cc(C)ccc1C` is lower in melting point: 101 to 103 °C for the first, 99 to 101 °C for the second.

First: Cn1c(=O)n(CC(=O)OCCF)c(=O)n(-c2cc(Oc3ncc(C(F)(F)F)cc3Cl)ccc2Br)c1=O
Second: COC(=O)c1csnc1-c1cc(C(F)(F)F)cc(C(F)(F)F)c1
The melting point of the first is higher: 93 to 95 °C for the first, 45 to 46.5 °C for the second.

First: COc1ccc(CC2CNC(=O)N2)cc1O (centres undefined)
Second: COc1ccc(C2=NN(C3CCSCC3)C(=O)[C@H]3CC=CC[C@@H]23)c2c1OC(C)(C)C2 (relative stereo)
The melting point of the first is higher: 192 to 202 °C for the first, 163 to 164 °C for the second.

First: CCCCN1CCN2c3ccc(C)cc3C(c3ccco3)=[N+]([O-])CC2C1 (centres undefined)
Second: Cc1ccc(-c2cncc(OC3SCC(O)C(O)C3O)c2)cc1 (centres undefined)
The melting point of the first is lower: 104 to 106 °C for the first, 228 °C for the second.

Compared with `Oc1c(C2CCCC2)cc(C2CCCC2)cc1C1CCCC1`, `O=C(CC12CC3CC(CC(C3)C1)C2)Nc1ccccc1Cl` is higher in melting point: 104 °C for the first, 122 to 124 °C for the second.

First: O=C(O)C(=O)CC(=O)c1cccn1Cc1cccc2ccccc12
Second: O=c1c2cc(F)ccc2nc(C(S)c2ncnc3[nH]cnc23)n1-c1ccccc1Cl (centres undefined)
The melting point of the first is lower: 172 to 174 °C for the first, 233 °C for the second.

First: C#CCOc1cc(CO)cc(OCC#C)c1
Second: CCOC(=O)NC(=NCCCc1c[nH]cn1)NCCSCc1ccccn1
The melting point of the first is higher: 79 to 80 °C for the first, 60 to 61 °C for the second.

First: Cc1cc2n(c1C(=O)c1cccs1)CCC2C(=O)O (centres undefined)
Second: O=C(O)c1ccc(-n2nnnc2S)cc1
The melting point of the first is lower: 166 °C for the first, 198 °C for the second.

Compared with `CSc1cccc2c1Oc1ccccc1N2[Si](C)(C)C(C)(C)C`, `CC(C)(C)c1ccc(C(=O)c2ccc(C(C)(C)C)cc2)cc1` is higher in melting point: 61 to 62 °C for the first, 132 to 136 °C for the second.

First: COC(=O)C(Cc1c[nH]c2ccccc12)NCOC(C)[Si](C)(C)C (racemic)
Second: OC(Cc1ccc2ccccc2n1)C(Cl)(Cl)Cl (centres undefined)
The melting point of the first is lower: 113 to 115 °C for the first, 156 to 158 °C for the second.

In the case of `CCc1nn(C2CCCC2)c2nc(COS(C)(=O)=O)nc(OS(C)(=O)=O)c12`, the melting point is reported as 114 to 116 °C.

Reference: a melting point compilation (Tetko et al.; mined from patent text by program, amines drawn as free bases though some values may be those of a salt)
